Experimental data as given in patent US20180072944A1, “Stannous Fluorescent Probe” (priority 2016, published 2018).

Tests used:
[1] = pH titration of fluorescence; assay type: physicochemical; details: 10 μM in PBS, emission 580 nm, excitation 560 nm
Procedure: pH titration of Compounds R1 and R2 is described. Stock solutions of Compounds R1 and R2 are respectively added to sodium phosphate buffers of various pH to a final concentration of 10 μM. The fluorescence emission spectra are recorded as a function of pH using λex at 560 nm. The titration curves are plotted by fluorescence emission intensities at 580 nm versus pH.
The impact of pH values on fluorescence is described. The pirolactam ring of the rhodamine derivatives will open in a certain pH range and indicates the fluorescence of rhodamine. It is therefore necessary to check the fluorescence properties of Compounds R1 and R2 in solutions with different pH values. Furthermore, in the cell, the acidity of different organelles may vary greatly. For example, the normal pH of lysosomes is 4.5-5.5, which may induce ring opening of R1 or R2. Considering the application of Sn^2+ probe R1 and R2 intracellular or extracellular may be disturbed by the pH, the acid-base titration experiments are carried out by adjusting the pH with an aqueous solution of NaOH and HCl in Phosphate-Buffered Saline (“PBS”) (FIG. 2 a and b). […] It is predicted that R1 will be turned on by lysosomes in cell without Sn^2+ present. FIGS. 2a and 2b show the dependence of fluorescence at 580 nm of comparative Compound R1 and inventive Compound R2 (10 μM) at different pH in PBS solution. Excitation was at 560 nm.

lysosomes of KB cells = experiment: Colocalization experiment with LysoTracker Green DND in KB cells; assay type: cell-based; details: 50 μM Sn^2+, 10 μM probe, 1 μM LysoTracker Green DND, 30 min each
Procedure: Colocalization experiments are described. 50 μM SnF2 in the culture media is added to the cells. The cells are incubated at 37° C. for 30 min, and washed with PBS three times to remove the excess SnF2. After washing with PBS (2 mL×3) to remove the excess SnF2, the cells are treated with 10 μM of Compound R1 or R2 separately for 30 min, and washed with PBS three times to remove the excess probe and bathed in PBS (2 mL) before imaging. Cell imaging is then carried out as the former. After washing with PBS (2 mL×3) to remove the excess probes, the cells were treated with 1.0 μM LysoTracker® Green DND at 37° C. for 30 min. Cell imaging is then carried out as the former.
Firstly, the KB cells are stained with 50 μM Sn^2+ at 37° C. for 30 min, and then separately incubated with 10 μM of Compound R1 and 1 μM LysoTracker® Green DND or Compound R2 and 1 μM LysoTracker® Green DND under the same conditions. […] There is no fluorescence in other intracellular sites. […] This may be a transmission path of Sn. […] Many pharmaceutical agents, including various large and small molecules, must be delivered specifically to particular cell organelles in order to efficiently exert their therapeutic action. Such delivery is still mainly an unresolved problem, but targeting detection is helpful attempt. […]

[2] = test system: Streptococcus mutans (ATCC® 700610™); experiment: Fluorescence imaging of Sn^2+ in bacteria (confocal); assay type: cell-based; details: for fluorescence change in Streptococcus mutans after incubation with Sn^2+: 10 μM probe 60 min at 37° C., then 50 μM Sn^2+; for fluorescence in Streptococcus mutans without Sn^2+ present: 10 μM probe, 37° C., 60 min, no Sn^2+
Procedure: Cell culture preparation is described. The KB cell line was provided by of Biochemistry and Cell Biology (China). Cells are grown in MEM (Modified Eagle's Medium) supplemented with 10% FBS (Fetal Bovine serum) and 5% CO2 at 37° C. Cell ([…]) are plated on […] glass coverslips and allowed to adhere for 24 hours. The Streptococcus mutans (ATCC® 700610™) is prepared by inoculating the single colony from the BHI (Brain-Heart Infusion) agar plate into 5 mL BHI broth and incubating at 37° C. for 48 h.
For fluorescence imaging of Sn^2+ in bacteria is described. Freshly diluted Streptococcus mutans (ATCC® 700610™) is sub cultured in the presence of the 10 μM Compound R1 or R2, separately at 37° C. on a shaker bed at 400 rpm for 60 min. Then the bacteria are collected by centrifugation at 8,000 rpm for 2 min and rinsed with Saline (pH=7.0). The process is repeated three times before imaging. After washing with Saline (2 mL×3) to remove the excess probes, the bacteria is cultured in the presence of the 50 μM SnF2 at 37° C. on a shaker bed at 400 rpm for 60 min. Then the bacteria are collected by centrifugation at 8,000 rpm for 2 min and rinsed with Saline (pH=7.0). The process was repeated three times before imaging. The light source is at =543 nm provided excitation and emission are collected in the range=560-660 nm.
Turning to FIGS. 5a and 5b, fluorescence imaging of Sn^2+ in bacteria is described. FIGS. 5a and 5b show simplified illustrations derived based upon CLSM. The illustrations are not drawn to scale but rather enlarged for illustrative purposes. It has been reported that Sn^2+ can inhibit metabolism of Streptococcus mutans. The practical applicability of Compounds R1 and R2 as a Sn^2+ probe in the fluorescence imaging of living Streptococcus mutans (ATCC® 700610™) are investigated. Firstly, the Streptococcus mutans (ATCC® 700610™) are separately stained with 10 μM Compound R1 or R2 at 37° C. for 60 min.
FIGS. 5a and 5b show simplified illustrations derived based upon CLSM images of Streptococcus mutans (ATCC® 700610™). The illustrations are not drawn to scale but rather enlarged for illustrative purposes. (a1-c1) and (a2-c2) Cells are separately incubated with 10 μM comparative Compound R1 and inventive Compound R2 for 30 min, (d1-f1) and (d2-f2) followed incubated with 50 μM SnF2 for 30 min. Emission is collected in red channel at 560-660 nm (b1, e1, b2, e2); a1, d1, a2, d2 are bright field images and c1, f1, c2, f2 are overlay images, respectively (λex=543 nm).

[3] = Metal ion sensing: fluorescence titration and selectivity experiments; assay type: physicochemical; details: for fluorescence at 580 nm upon addition of Sn^2+ / selectivity: metal ions that turn on fluorescence / fluorescence of probe solution without metal ion: 20 μM in ethanol-water (1:1, v/v, pH 7.04); for fluorescence at 580 nm upon addition of Sn^2+: Sn^2+ 0-20 eq; for fluorescence at 580 nm upon addition of Sn^2+ / selectivity: metal ions that turn on fluorescence / fluorescence enhancement with other transition and heavy metal ions: excitation 560 nm; for fluorescence of probe solution without metal ion: no Sn^2+; for fluorescence enhancement with other transition and heavy metal ions: K^+, Ag^+, Ca^2+, Mg^2+, Zn^2+, Pb^2+, Ni^2+, Mn^2+, Co^2+, Cd^2+, Hg^2+, 20 μM probe
Procedure: The procedure for metal ion sensing is described. Solutions of the metal ions (10.0 mM) are prepared in deionized water. […] Sn^2+ stock solution is added into the quartz optical cell gradually by micro-pipette. Spectral data is recorded at 5 min after addition. […] For fluorescence measurements, excitation is provided at 560 nm, while emission is collected from 565 to 700 nm. Metal ion response is described. Fluorescent ‘turn on’ probe is conducive for detection target. […] High-level selectivity is of paramount importance for an excellent chemosensor. […] Metal ion response of R1 and R2 are suited for detection of Sn^2+ in living Streptococcus mutans cells.

Compound: CCN(CC)c1ccc2c(c1)Oc1cc(N(CC)CC)ccc1C21c2ccccc2C(=O)N1NC(=O)OC(C)(C)C [Compound R2]
- pH range for inducing fluorescence turning on [1]: 2-4.5 pH
- colocalization of probe fluorescence with LysoTracker Green DND (lysosomes of KB cells): overlap with LysoTracker® Green DND very well
- fluorescence change in Streptococcus mutans after incubation with Sn^2+ [2]: significant fluorescence increasing
- fluorescence in Streptococcus mutans without Sn^2+ present [2]: no fluorescence emission
- fluorescence at 580 nm upon addition of Sn^2+ [3]: turned on and grown drastically
- selectivity: metal ions that turn on fluorescence [3]: tuning on just in the presence of Sn^2+ and Cr^3+
- fluorescence of probe solution without metal ion [3]: non-fluorescent
- fluorescence enhancement with other transition and heavy metal ions [3]: minimal enhancement

Compound: Spiro[1H-isoindole-1,9′-[9H]xanthen]-3(2H)-one, 2-[2-[bis(2-hydroxyethyl)amino]amino]ethyl]-3′,6′-bis(diethylamino) [Compound R1]
- pH range for inducing fluorescence turning on [1]: 2.5-6 pH
- colocalization of probe fluorescence with LysoTracker Green DND (lysosomes of KB cells): overlap with LysoTracker® Green DND very well
- fluorescence change in Streptococcus mutans after incubation with Sn^2+ [2]: significant fluorescence increasing
- fluorescence in Streptococcus mutans without Sn^2+ present [2]: no fluorescence emission
- fluorescence at 580 nm upon addition of Sn^2+ [3]: turned on and grown drastically
- selectivity: metal ions that turn on fluorescence [3]: tuning on just in the presence of Sn^2+ and Cr^3+
- fluorescence of probe solution without metal ion [3]: non-fluorescent
- fluorescence enhancement with other transition and heavy metal ions [3]: minimal enhancement
